Measurements taken from PubChem BioAssay (NCI).
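96-well plates; 48 h exposure; 5 concentrations. Endpoints by linear interpolation between flanking doses. Not reached: highest tested concentration assigned. Here, GI50 denotes the concentration required for 50% inhibition of growth. TGI marks complete inhibition of growth.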

Assays:
Experiment in all cases: NCI tumour cell line growth inhibition, 48 h
SR leukemia = tested on: SR leukemia
IGROV1 ovarian = tested on: IGROV1 ovarian
786-0 renal = tested on: 786-0 renal
ACHN renal = tested on: ACHN renal
NCI-H460 lung = tested on: NCI-H460 lung
MOLT-4 leukemia = tested on: MOLT-4 leukemia
EKVX NSCLC = tested on: EKVX NSCLC
UACC-62 melanoma = tested on: UACC-62 melanoma
CAKI-1 renal = tested on: CAKI-1 renal
RXF 393 renal = tested on: RXF 393 renal

Compound	GI50 (SR leukemia) [µM]	TGI (SR leukemia) [µM]	GI50 (IGROV1 ovarian) [µM]	TGI (IGROV1 ovarian) [µM]	GI50 (786-0 renal) [µM]	TGI (786-0 renal) [µM]	GI50 (ACHN renal) [µM]	TGI (ACHN renal) [µM]	GI50 (NCI-H460 lung) [µM]	TGI (NCI-H460 lung) [µM]	GI50 (MOLT-4 leukemia) [µM]	TGI (MOLT-4 leukemia) [µM]	GI50 (EKVX NSCLC) [µM]	TGI (EKVX NSCLC) [µM]	GI50 (UACC-62 melanoma) [µM]	TGI (UACC-62 melanoma) [µM]	GI50 (CAKI-1 renal) [µM]	TGI (CAKI-1 renal) [µM]	GI50 (RXF 393 renal) [µM]	TGI (RXF 393 renal) [µM]
COc1ccc(-c2nc3sc(-c4ccc(Cl)cc4)cn3n2)cc1	4.53	26.1	1.15	8.13	1.06	2.41	0.927	2.02	1.33	4	11.3	> 50	4.82	> 50	8.24	> 50	1.79	8.92	6	39.7
CC1CC2CC(=O)CC3(C1)C2CCCN3CCCO (stereo not given)		> 100		> 100		> 100		> 100		> 100		> 100		> 100		> 100		> 100		> 100
C=C(CCCCCCCCC)CC(=O)SCCNC(=O)CCNC(=O)C(O)C(C)(C)COP(=O)(O)OP(=O)(O)OCC1OC(n2cnc3c(N)ncnc32)C(O)C1OP(=O)(O)O (stereo not given)		> 100		> 100		> 100		> 100		> 100		> 100		> 100		46.1		> 100		> 100
C=CCN(/C=C1/C(=O)O[C@H](COC)[C@@]2(C)C1=C(O)C(=O)C1=C2[C@H](OC(C)=O)C[C@]2(C)C(=O)CC[C@@H]12)CC=C	0.708	> 10	0.135	6.81	0.379	> 10	1.53	> 10	0.585	> 10	1.05	> 10	0.828	> 10	0.144	4.45	0.357	> 10	0.112	1.56
O=Cc1ccccc1OCCOc1cc(OCCOc2ccccc2C=O)c(OCCOc2ccccc2C=O)cc1OCCOc1ccccc1C=O		> 100		> 100		> 71.3		> 92.5		> 100		> 100		> 100		> 100		> 100		> 100
CSC(CC(=O)O)C(=O)O (stereo not given)		> 100		> 100		> 100		> 100		> 100		> 100		> 100		> 100		> 100		> 100
C[C@H](NC(=O)[C@@H]1CSSC[C@@H](NC(=O)c2nc3ccccc3cc2O)C(=O)NCC(=O)N1C)c1ccccc1	0.17	0.877	2.59	12.4	2.45	9.78	4.63	12.8	1.25	7.98	0.894	3.27	3.48	11.8	5.6	13.2	7.24	18.5	1.31	3.06
